# Source: patent US8609836B2, “4-aryl-2-anilino-pyrimidines” (Janssen Pharmaceutica NV, priority 2008, dated 2013)
# Assays:
# U87-MG = assay: Cellular proliferation assay (Alamar blue), U87-MG; type: cell-based; settings: Homo sapiens, U-87 MG; 10% FCS; 72 hours with compound; Alamar blue 6 h; read-out: U87-MG (cellular proliferation assay, Table 4) (converted)
# How it was run: (§1)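 After a 24 h compound-free attachment period, cells in 10% FCS medium are treated for 72 h at 37° C. Resazurin conversion is then quantified by fluorescence, with dye incubation lasting 4 h for HCT-116, 6 h for U87-MG and 24 h for A2780 or MDA-MB-231.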
# CDK1/CyclinB (h) = CDK1/CyclinB (h) (Homo sapiens, UniProt P06493); assay: CDK1/CyclinB human kinase inhibition, Invitrogen's FRET assay (Z'lyte); type: biochemical; settings: read-out: CDK1 pIC50 (converted)
# Sequence of CDK1/CyclinB (h) (P06493 whole entry): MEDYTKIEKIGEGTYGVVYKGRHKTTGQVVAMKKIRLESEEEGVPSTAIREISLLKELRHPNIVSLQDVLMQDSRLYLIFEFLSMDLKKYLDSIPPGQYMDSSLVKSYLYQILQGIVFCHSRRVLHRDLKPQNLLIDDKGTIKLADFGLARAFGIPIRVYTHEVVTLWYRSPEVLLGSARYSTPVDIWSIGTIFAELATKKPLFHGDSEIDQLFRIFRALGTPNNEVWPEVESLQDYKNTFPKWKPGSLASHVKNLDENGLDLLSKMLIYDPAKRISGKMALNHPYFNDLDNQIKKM
# Sequence of CDK1/CyclinB (h) (P14635 whole entry partner): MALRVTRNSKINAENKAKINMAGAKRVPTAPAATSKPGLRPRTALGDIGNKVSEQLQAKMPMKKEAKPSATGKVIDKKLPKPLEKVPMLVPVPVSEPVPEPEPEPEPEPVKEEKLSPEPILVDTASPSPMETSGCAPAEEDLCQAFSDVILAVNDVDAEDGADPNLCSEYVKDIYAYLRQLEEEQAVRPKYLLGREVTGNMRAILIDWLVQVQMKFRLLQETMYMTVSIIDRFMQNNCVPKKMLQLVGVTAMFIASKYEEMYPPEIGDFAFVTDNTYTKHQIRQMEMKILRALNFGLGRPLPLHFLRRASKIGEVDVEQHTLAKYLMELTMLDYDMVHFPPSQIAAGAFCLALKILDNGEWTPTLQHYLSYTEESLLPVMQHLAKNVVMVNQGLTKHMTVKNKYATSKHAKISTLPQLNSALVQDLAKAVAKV
# How it was run: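 Read-out is the 460 nm/538 nm emission ratio (390 nm excitation) after a 60 min protease development step. Before that, 10 μM ATP and 2 μM Z'lyte Ser/Thr peptide 12 react 60 min at room temperature with 0.2 μg/ml human CDK1/CyclinB in Hepes pH 7.5 containing MgCl2, EGTA and Brij-35.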
# PLK3 (h) = PLK3 (h) (Homo sapiens, UniProt Q9H4B4); assay: PLK3 human kinase inhibition, SPA; type: biochemical; settings: read-out: PLK3 pIC50 (converted)
# Sequence of PLK3 (h) (Q9H4B4 whole entry): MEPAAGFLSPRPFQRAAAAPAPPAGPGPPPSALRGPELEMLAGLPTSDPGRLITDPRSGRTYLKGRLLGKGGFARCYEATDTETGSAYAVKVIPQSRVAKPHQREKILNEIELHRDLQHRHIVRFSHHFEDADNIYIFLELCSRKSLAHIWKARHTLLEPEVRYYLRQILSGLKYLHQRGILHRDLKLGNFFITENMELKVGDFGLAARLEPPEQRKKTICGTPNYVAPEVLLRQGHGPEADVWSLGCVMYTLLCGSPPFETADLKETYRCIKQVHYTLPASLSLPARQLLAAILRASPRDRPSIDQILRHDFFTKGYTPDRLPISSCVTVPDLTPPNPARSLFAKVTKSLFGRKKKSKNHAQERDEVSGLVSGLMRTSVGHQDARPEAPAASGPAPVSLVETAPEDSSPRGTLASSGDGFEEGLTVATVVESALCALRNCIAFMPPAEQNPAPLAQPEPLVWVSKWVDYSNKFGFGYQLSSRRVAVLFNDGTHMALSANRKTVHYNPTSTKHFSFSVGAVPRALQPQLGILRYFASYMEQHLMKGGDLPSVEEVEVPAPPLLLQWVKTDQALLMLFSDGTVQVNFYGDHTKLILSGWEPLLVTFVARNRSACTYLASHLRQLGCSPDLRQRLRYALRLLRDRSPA
# How it was run: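 Radiometric scintillation proximity format at pH 8.0 (Hepes, MnCl2, DTT). The 2 μM biotin-peptide substrate is phosphorylated by PLK3 (h) (30 μg/ml) using 0.1 μM ATP traced with 33P, for 20 min at room temperature. EDTA stop; phosphopeptide captured on streptavidin beads and imaged.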
# H1299 = assay: Cellular proliferation assay (Alamar blue), H1299; type: cell-based; settings: Homo sapiens, NCI-H1299; 10% FCS; 72 hours with compound; Alamar blue 4 h
# How it was run: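 This proliferation assay on NCI-H1299 cells used an initial 24-hour compound-free incubation after seeding, followed by 72 hours of compound treatment with 10% FCS serum at 37° C. and 5% (v/v) CO2. Viable cells were quantified by a 4 h Alamar blue incubation and fluorescent plate reading at 544 nm/590 nm, and effects were expressed relative to control cells.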
# CDK4/CyclinD1 (h) = CDK4/CyclinD1 (h) (Homo sapiens, UniProt P11802); assay: CDK4/CyclinD1 human kinase inhibition, SPA with GST-pRb substrate; type: biochemical; settings: read-out: CDK4 pIC50 (converted)
# Sequence of CDK4/CyclinD1 (h) (P11802 whole entry): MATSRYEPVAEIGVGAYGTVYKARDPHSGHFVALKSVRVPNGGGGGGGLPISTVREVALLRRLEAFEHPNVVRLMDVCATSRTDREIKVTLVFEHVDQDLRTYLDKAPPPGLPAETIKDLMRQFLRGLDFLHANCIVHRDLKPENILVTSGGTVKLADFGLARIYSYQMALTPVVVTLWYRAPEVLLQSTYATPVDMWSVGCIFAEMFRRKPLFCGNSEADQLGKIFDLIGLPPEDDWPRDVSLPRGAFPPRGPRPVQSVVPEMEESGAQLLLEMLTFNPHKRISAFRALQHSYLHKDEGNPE
# Sequence of CDK4/CyclinD1 (h) (P24385 whole entry partner): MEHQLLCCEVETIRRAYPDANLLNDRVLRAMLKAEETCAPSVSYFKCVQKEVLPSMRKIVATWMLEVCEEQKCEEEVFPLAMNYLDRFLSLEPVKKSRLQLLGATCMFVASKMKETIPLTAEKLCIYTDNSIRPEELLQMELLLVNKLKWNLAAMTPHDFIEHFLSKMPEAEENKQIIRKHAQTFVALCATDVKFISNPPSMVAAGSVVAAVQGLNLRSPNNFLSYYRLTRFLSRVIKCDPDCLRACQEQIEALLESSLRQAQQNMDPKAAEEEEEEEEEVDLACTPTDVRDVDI
# How it was run: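 Scintillation proximity format: after EDTA/Triton stop containing glutathione SPA beads, 33P incorporation was counted. The reaction ran 60 min at room temperature in Hepes pH 7.5 with NaF, MgCl2, DTT, using 2.5 μg/ml human CDK4/CyclinD1, 40 μg/ml GST-pRb substrate and 2 nM [γ-33P]ATP.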
# PLK2 (h) = PLK2 (h) (Homo sapiens, UniProt Q9NYY3); assay: PLK2 human kinase inhibition, SPA; type: biochemical; settings: read-out: PLK2 pIC50 (converted)
# Sequence of PLK2 (h) (Q9NYY3 whole entry): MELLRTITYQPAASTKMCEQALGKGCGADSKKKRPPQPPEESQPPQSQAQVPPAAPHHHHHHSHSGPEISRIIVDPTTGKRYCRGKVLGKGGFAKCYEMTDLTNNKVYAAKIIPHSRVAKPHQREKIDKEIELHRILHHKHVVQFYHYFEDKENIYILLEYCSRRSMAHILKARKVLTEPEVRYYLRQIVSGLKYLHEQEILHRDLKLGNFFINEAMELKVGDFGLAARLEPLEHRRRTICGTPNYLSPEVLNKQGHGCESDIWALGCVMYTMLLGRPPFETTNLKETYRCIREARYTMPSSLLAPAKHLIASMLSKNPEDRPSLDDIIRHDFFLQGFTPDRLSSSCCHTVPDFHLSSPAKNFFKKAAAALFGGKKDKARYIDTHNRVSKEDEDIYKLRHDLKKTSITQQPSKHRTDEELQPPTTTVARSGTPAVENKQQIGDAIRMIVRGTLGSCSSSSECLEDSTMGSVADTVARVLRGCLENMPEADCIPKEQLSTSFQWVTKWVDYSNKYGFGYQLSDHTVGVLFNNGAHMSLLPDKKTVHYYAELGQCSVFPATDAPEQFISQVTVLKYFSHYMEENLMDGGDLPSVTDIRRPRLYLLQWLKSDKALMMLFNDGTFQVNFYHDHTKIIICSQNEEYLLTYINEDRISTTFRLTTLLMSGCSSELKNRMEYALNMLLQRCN
# How it was run: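 33P incorporation into a biotinylated peptide (2 μM) was captured on streptavidin PVT beads and imaged on Leadseeker. Enzyme at 30 μg/ml, ATP 0.1 μM with 2 nM [γ-33P]ATP, Hepes pH 8.0 with MnCl2 and DTT. Incubation was 20 min at room temperature.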
# HCT-116 = assay: Cellular proliferation assay (Alamar blue), HCT-116; type: cell-based; settings: Homo sapiens, 10% FCS, 72 hours with compound, Alamar blue 4 h
# How it was run: as §1
# AuroraB (h) = AuroraB (h) (Homo sapiens, UniProt Q96GD4); assay: Aurora-B human kinase inhibition, SPA; type: biochemical; settings: read-out: AuroraB pIC50 (converted)
# Sequence of AuroraB (h) (Q96GD4 whole entry): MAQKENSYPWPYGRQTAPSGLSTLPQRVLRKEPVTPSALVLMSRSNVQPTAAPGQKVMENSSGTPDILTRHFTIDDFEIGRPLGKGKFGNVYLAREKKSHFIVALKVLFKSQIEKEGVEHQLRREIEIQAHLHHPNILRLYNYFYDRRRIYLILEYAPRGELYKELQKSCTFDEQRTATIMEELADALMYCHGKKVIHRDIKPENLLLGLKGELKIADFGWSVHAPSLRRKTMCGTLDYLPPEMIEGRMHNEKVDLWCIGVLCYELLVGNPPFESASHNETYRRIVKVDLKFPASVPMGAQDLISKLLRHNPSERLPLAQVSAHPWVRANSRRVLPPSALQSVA
# How it was run: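 AuroraB (0.5 μg/ml) phosphorylates 3 μM biotin-peptide using 0.5 μM ATP spiked with 33P-ATP in Hepes pH 7.5 with 3 mM MgCl2 and MnCl2, for 60 min at room temperature. EDTA stop solution carries streptavidin scintillant beads, and the captured radiolabel is imaged.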
# A2780 = assay: Cellular proliferation assay (Alamar blue), A2780; type: cell-based; settings: Homo sapiens, 10% FCS, 72 hours with compound, Alamar blue 24 h, read-out: A2780 (cellular proliferation assay, Table 4) (converted)
# How it was run: as §1
SMILES,IC50 (U87-MG) [µM],IC50 (CDK1/CyclinB (h)) [µM],IC50 (PLK3 (h)) [µM],IC50 (H1299) [µM],IC50 (CDK4/CyclinD1 (h)) [µM],IC50 (PLK2 (h)) [µM],IC50 (HCT-116) [µM],IC50 (AuroraB (h)) [µM],IC50 (A2780) [µM]
COc1ccc2cc1CN1CCC(CC1)C(=O)N(C)CCN(C)c1ccc(cn1)-c1ccnc(n1)N2 [Compound 4],> 10,> 10,> 10,> 10,1.91,> 10,5.25,> 10,> 10
C[C@@H]1NCc2cc(ccc2N2CCOCC2)Nc2nccc(n2)-c2ccc(cc2)OCCCNC1=O [Compound 5],> 10,> 10,> 10,> 10,1.29,> 10,1.74,> 10,> 10
O=C1NCCOc2ccc(cc2)-c2ccnc(n2)Nc2ccc(N3CCOCC3)c(c2)CN2CCC1CC2 [Compound 6],0.575,0.195,> 10,0.38,0.562,> 10,0.105,1.66,0.195
O=C1NCCCOc2ccc(cc2)-c2ccnc(n2)Nc2ccc(N3CCOCC3)c(c2)CN2CCC[C@@H]12 [Compound 7],4.37,3.47,> 10,> 10,6.46,> 10,6.03,6.31,> 10
O=C1CN2CCN(CC2)Cc2cc(ccc2N2CCOCC2)Nc2nccc(n2)-c2ccc(cc2)OCCN1 [Compound 9],1.55,> 10,> 10,> 10,7.94,> 10,7.76,> 10,> 10
CN1CCCNC(=O)[C@H](CO)NCc2cc(cc(N3CCOCC3)c2)Nc2nccc(n2)-c2ccc(cc2)C1 [Compound 10],> 10,> 10,> 10,> 10,> 10,> 10,> 10,9.33,> 10
COc1ccc2cc1CN1CCN(CC1)CC(=O)N(C)CCN(C)c1ccc(cn1)-c1ccnc(n1)N2 [Compound 14],> 10,> 3.02,> 10,> 10,> 10,> 10,5.89,> 10,> 10
CN1CCCNC(=O)[C@@H]2CCCN2Cc2cc(cc(N3CCOCC3)c2)Nc2nccc(n2)-c2ccc(cc2)C1 [Compound 16],8.13,> 10,> 10,> 10,> 10,> 10,> 10,> 10,9.55
O=C1NCCCc2cc(ccn2)-c2ccnc(n2)Nc2cccc(c2)CN[C@H]1CO [Compound 19],1.07,0.0562,> 10,,1.26,> 10,0.724,> 10,1.45
O=C1CN2CCN(CC2)Cc2cccc(c2)Nc2nccc(n2)-c2ccnc(c2)CCCN1 [Compound 21],2.82,0.105,> 10,,1.29,> 10,2.29,> 10,7.59
CN(C)Cc1cc2cc(c1)Nc1nccc(n1)-c1cccc(c1)CNC(=O)[C@@H]1CCCN1C2 [Compound 30],0.145,0.269,> 10,0.191,0.891,> 10,0.107,> 10,0.174
CN(C)CCNCc1cc2cc(c1)Nc1nccc(n1)-c1cccc(c1)CNC(=O)[C@@H]1CCCN1C2 [Compound 31],2.24,0.933,> 10,1.78,1,> 10,1.02,> 10,5.01

# The remaining lines, values ahead:
IC50 (U87-MG) [µM],IC50 (CDK1/CyclinB (h)) [µM],IC50 (PLK3 (h)) [µM],IC50 (H1299) [µM],IC50 (CDK4/CyclinD1 (h)) [µM],IC50 (PLK2 (h)) [µM],IC50 (HCT-116) [µM],IC50 (AuroraB (h)) [µM],IC50 (A2780) [µM],SMILES
6.76,4.17,> 10,6.92,2.14,> 10,3.8,4.37,2.34,O=C1NCc2cccc(c2)-c2ccnc(n2)Nc2ccc(N3CCOCC3)c(c2)CN2CCC[C@@H]12 [Compound 1]
0.234,0.251,> 10,2.75,2.75,> 10,0.174,10.2,0.437,O=C1NCc2cccc(c2)-c2ccnc(n2)Nc2cc(CN3CCOCC3)cc(c2)CN2CCC[C@@H]12 [Compound 22]
4.27,> 10,> 10,> 10,4.27,> 10,3.8,> 10,5.89,CN(C)C(=O)c1ccc2cc1CN1CCC[C@H]1C(=O)NCc1cccc(c1)-c1ccnc(n1)N2 [Compound 24]
0.457,0.676,> 10,3.8,1.23,> 10,0.646,> 10,0.708,O=C1NCc2cccc(c2)-c2ccnc(n2)Nc2cc(CNC3CCOCC3)cc(c2)CN2CCC[C@@H]12 [Compound 29]
0.0513,0.537,> 10,1.1,1.26,> 10,0.126,8.32,0.224,COCCNCc1cc2cc(c1)Nc1nccc(n1)-c1cccc(c1)CNC(=O)[C@@H]1CCCN1C2 [Compound 33]
0.282,0.457,> 10,3.39,1.2,> 10,0.372,8.13,0.55,O=C1NCc2cccc(c2)-c2ccnc(n2)Nc2cc(CNC3CCCCC3)cc(c2)CN2CCC[C@@H]12 [Compound 36]
2.29,3.09,> 10,> 10,1.62,> 10,2.19,> 10,4.68,COCCNC(=O)c1ccc2cc1CN1CCC[C@H]1C(=O)NCc1cccc(c1)-c1ccnc(n1)N2 [Compound 40]
2.29,> 10,> 10,> 10,5.62,> 10,3.89,> 10,> 10,O=C(NC1CCCCC1)c1ccc2cc1CN1CCC[C@H]1C(=O)NCc1cccc(c1)-c1ccnc(n1)N2 [Compound 41]
1.82,~1.35,> 3.02,3.39,0.457,> 10,0.955,> 10,1.45,CN(C)CCNC(=O)c1ccc2cc1CN1CCC[C@H]1C(=O)NCc1cccc(c1)-c1ccnc(n1)N2 [Compound 42]
> 10,> 10,> 10,> 10,5.75,> 10,2.24,> 10,5.5,O=C(NC1CCOCC1)c1ccc2cc1CN1CCC[C@H]1C(=O)NCc1cccc(c1)-c1ccnc(n1)N2 [Compound 46]
